Data set [1] concerns human bone marrow-derived cells (HBM). The data set can be described thus: GM1 up-regulation, CTB-HRP normalized to Alamar Blue (Example 3, FIG. 3). In kind it is cell-based. A general note: Alamar Blue is a resazurin reagent that responds to reducing activity.
Data set [2] concerns SHSY-5Y. In kind it is cell-based, human.
In data set [3] the test system is SHSY-S. The class given is cell-based.
Data set [4] relates to SK-N-AS. In kind it is cell-based.
In data set [5] the test system is CHO-K1. In kind it is cell-based, Chinese Hamster.
Data set [6] has as its system HEK293. In kind it is cell-based, Human.
In data set [7] the test system is GBT-ABMSC. The class given is cell-based, Human.
In data set [8] the test system is Lonza BMSC. The data set can be described thus: GM1 induction by CLQ treatment, CTB-Alexa488 staining (Table 4). The class given is cell-based, Human. To be noted: Lonza MSC basal medium + growth supplements, 10,000 per well, CLQ 48-120 hours. On the procedure: Human bone marrow-derived stromal cells, adipose-derived stromal cells, dermal fibroblasts, and fibroblasts from subjects diagnosed with GM1 gangliosidosis, as well as immortalized neuroblastoma cells (SHSY-5Y, SHSY-S and SK-N-AS), Chinese Hamster Ovary cells (CHO-K1), and Human Embryonic Kidney cells (HEK293) were purchased from commercial sources. Cells were cultured on 24 well plates in standard culture medium, at a density of 2000-20,000 cells/well overnight and either maintained in standard culture medium (CONTROL) or treated with chloroquine (CLQ) according to the conditions listed in Table 4 below. Cells were maintained in a tissue culture incubator at approximately 37° C. in a humidified atmosphere comprising approximately 5% CO2 and approximately 21% O2 balanced with N2. After treatment for 48-120 hours, the cells were fixed with 4% paraformaldehyde and stained with CTB-Alexa488 to detect GM1 ganglioside. Extensive GM1 accumulation is evident in most cells types compared to controls maintained in standard culture media alone. (FIGS. 10 and 11 and Table 4).

Data set [9] deals with ADSC. In kind it is cell-based, Human.
For data set [10], the system named is Dermal fibroblast. The class given is cell-based, Human.
Data set [11] has as its system GM1 fibroblast. The class given is cell-based, Human.
Data set [12] concerns SHSY-5Y, SHSY-S, SK-N-AS, CHO-K1 and HEK293 cells. In kind it is cell-based.
Data set [13] relates to GBT-ABMSC, Lonza BMSC, Lonza ADSC, dermal fibroblast and GM1 fb cells. The class given is cell-based, Human.
Data set [14] has as its system Adult Human Bone Marrow Cells.
In data set [15] the test system is SHSY-5Y cells.
Data set [16] relates to Affected sheep bone marrow cells (SBM).
In data set [17] the test system is Human bone marrow cells (HBM). To be noted: HBM 20,000 cells/well, serum-free medium 72 H, chloroquine 48 H.
In data set [18] the test system is PC12 (rat adrenal medulla tumor) cells. The settings on record: Yuyama et al., FEBS Lett. 580:6972-6976 (2006); cited from earlier work.
The subject of data set [19] is HT22 (mouse hippocampal) cells. To be noted: Hirata et al., J. Neurochem. 119:839-847 (2011); cited from earlier work.
Data set [20] deals with Affected sheep bone marrow cells (SBM). The experiment in a line: GM1 induction in affected sheep bone marrow cells by different treatments, CTB-Alexa 488 staining (Table 2). To be noted: affected SBM 20,000 cells/well, 72 H (Poly-L-Lysine coated coverslips 6 Days).
Data set [21] deals with Parkinson's disease subjects. The settings on record: short-term treatment; Schneider et al., Neurology 50:1630-1636 (1998); cited from earlier work.
Data set [22] has as its system Parkinson's disease subjects. To be noted: five-year study; Schneider et al., J. Neurol. Sci. 292:45-51 (2010); cited from earlier work.
Data set [23] deals with central nervous system lesions in experimental animals. To be noted: background statement; cited from earlier work.
The conditions of data set [24]: pretreatment; background statement; cited from earlier work.

Read-outs that look alike come from different tables or passages of the source.

For the compound `CCN(CC)CCCC(C)Nc1ccnc2cc(Cl)ccc12` (centres unmarked) [Chloroquine, chloroquine], the “up-regulation of GM1 expression (CTB-HRP normalized to Alamar Blue) versus control” value in [1] is listed as “approximately 8 fold”. In addition, the “% Increase in Degree of Staining with induction” value in data set [2] turned out to be 104%; in [3], 19%; in data set [4], 19%; in data set [5], 83%; in data set [6], 15%; in data set [7] it was 65%. Further, the “% Increase in Degree of Staining with induction” value in data set [8] is reported as 119%; in data set [9] it was 28%; in [10] it was 63%; in data set [11], 28%. In addition, the “GM1 signal (CTB-Alexa488) compared to control conditions, FIG. 10” value in [12] is “more abundant and intense compared to control conditions for all cell types”. Besides, the “GM1 signal (CTB-Alexa488) compared to control conditions, FIG. 11” value in [13] was “more abundant and intense compared to control conditions for all cell types”. The Cell Death is reported as 10-20% in data set [14] and “+” in data set [15]. The “Degree of Cell Death” value in data set [16] is reported as “+”. For the same compound, the “Degree of GM1 Staining” value in [17] was “+++++”; in [17] (listed as CLQ), “most intense staining”; in data set [20] (listed as CLQ), “also induced GM1, but not as much as CLQ/NIM”. Moreover, the “accumulation in PC12 cells” value in data set [18] is on record as “induce accumulation”. The “GM1 levels in HT22 cells” value in data set [19] is listed as “only moderately increased GM1 levels”.
For the compound PDGF, the “Degree of Cell Death” value in data set [16] is “−”.
With `N[C@H]1C(O)O[C@H](CO)[C@@H](O)[C@@H]1O` (some centres unmarked) [Glucosamine, glucosamine], in data set [20], the “Degree of GM1 Staining” value is “also induced GM1, but to a lesser degree”.
Consider `CCCCCCCCCCCCC/C=C/[C@@H](O)[C@H](CO[C@@H]1O[C@H](CO)[C@@H](O[C@@H]2O[C@H](CO)[C@H](O[C@@H]3O[C@H](CO)[C@H](O)[C@H](O[C@@H]4O[C@H](CO)[C@H](O)[C@H](O)[C@H]4O)[C@H]3NC(C)=O)[C@H](O[C@]3(C(=O)O)C[C@@](O)(CO)[C@@H](NC(C)=O)[C@H]([C@H](O)CO)O3)[C@H]2O)[C@H](O)[C@H]1O)NC(=O)CCCCCCCCCCCCCCCCC` [GM1], for which, in [21], the symptom reduction entry was “significant symptom reduction”. Moreover, in data set [22], the “clinical benefit of long-term use” value is given as “may provide some clinical benefit” and the “safety of long-term use” value is “safe”. Besides, in data set [23], the “recovery from central nervous system lesions” value is “significant biochemical and behavioral recovery”. Further, in data set [24], the “damage resulting from neurotoxin exposures” value is “inhibits damage”.
In the case of `O=C[C@H](O)[C@@H](O)[C@@H](O)[C@H](O)CO` [Switch from No glucose to galactose, galactose], in data set [15], the “Cell Death” value was “−”.

Values taken from patent publication US9051592B2, “Methods of ganglioside production” (Garnet BioTherapeutics, Inc., priority 2012, dated 2015).
